The values below come from US20050027015A1 (priority 2001, published 2005).

Series [1] deals with somatostain (SS). The note with it: pigs, poultry, fowls, goats, rabbits and fish; cited from earlier work.
For series [2], the system named is animals. The note with it: ingesting cysteamine directly; cited from earlier work.
The test system of series [3] is black & white dairy cows. Description: Experiment 3: three-stage feeding trial, black & white dairy cows. The note with it: control group, 40 g per cow every other day, versus 20 g daily (2.89 vs 2.73 wt %). The class given is in vivo. The text has this: Thirty-two black & white dairy cows were used in the experiment and were randomly divided into four groups, namely test Groups I to III, and a control group. Each group had eight cows. […] There were three stages in the experiment. In the first stage of the experiment, the feed for the test Groups I to III of cows was mixed with the composition such that each cow in the three test groups was fed with 20 g, 30 g and 40 g of the composition respectively daily. No cysteamine-containing composition was mixed in the feed for the control group of cows. The first stage of the experiment lasted for thirty-seven days and was preceded by a three-day adaptation period. During the second stage of the experiment, the composition was not added to the feed for the three test groups of cows. However, each cow in the control group was fed with 20 g of the composition daily via its feed. The second stage of the experiment lasted for seven days. During the third stage of the experiment, the three test groups of cows were fed with the feed mixed with the composition such that 20 g of the composition was taken by each cow daily. Each cow in the control group was fed with 40 g of the composition every other day via the feed. The third stage of the experiment lasted for seven days. The daily milk yield, milk fat content, milk protein content and somatic cells in milk were measured and recorded. […]

The conditions of series [4]: exposed to air or at an elevated temperature; cited from earlier work.

For `NCCS` [cysteamine], the “effect on somatostain (SS)” value in series [1] is “can deplete somatostain (SS)”. For the same molecule, in series [2], the gastro side effects entry is listed as “will cause undesirable gastro side effects”. In addition, the “increase of milk protein content” value in series [3] is 5.86%. In series [4], the oxidation entry is recorded as “readily oxidized”.
